We go through 13 compounds from patent US12122778B2, “Activating pyruvate kinase R” (Novo Nordisk Health Care AG, priority 2018, dated 2024).

Where two headings read alike, the source gives them in different places.

One assay addresses PKR(wt) (Homo sapiens, UniProt P30613). In words: Luminescence Biochemical Assay (Kinase Glo Plus), wild type PKR. As to conditions: without FBP; for activation at 1.54 µM: 1.54 μM compound, read-out: AC50 LUM KGP woFBP % Fold@1.54 μM mean; for Emax: read-out: AC50 LUM KGP woFBP MAX % FOLD mean. On the technique in general: Kinase-Glo reads ATP consumption through a luciferase reaction.

In the next assay the target is PKR(R510Q) (Homo sapiens, UniProt P30613, R510Q). In words: Luminescence Biochemical Assay (Kinase Glo Plus), PKR R510Q mutant. As to conditions: without FBP; for activation at 1.54 µM: 1.54 μM compound, read-out: AC50 LUM KGP woFBP % Fold@1.54 μM mean; for Emax: read-out: AC50 LUM KGP woFBP MAX % FOLD mean.
Sequence of PKR(R510Q) (P30613 whole entry R510Q): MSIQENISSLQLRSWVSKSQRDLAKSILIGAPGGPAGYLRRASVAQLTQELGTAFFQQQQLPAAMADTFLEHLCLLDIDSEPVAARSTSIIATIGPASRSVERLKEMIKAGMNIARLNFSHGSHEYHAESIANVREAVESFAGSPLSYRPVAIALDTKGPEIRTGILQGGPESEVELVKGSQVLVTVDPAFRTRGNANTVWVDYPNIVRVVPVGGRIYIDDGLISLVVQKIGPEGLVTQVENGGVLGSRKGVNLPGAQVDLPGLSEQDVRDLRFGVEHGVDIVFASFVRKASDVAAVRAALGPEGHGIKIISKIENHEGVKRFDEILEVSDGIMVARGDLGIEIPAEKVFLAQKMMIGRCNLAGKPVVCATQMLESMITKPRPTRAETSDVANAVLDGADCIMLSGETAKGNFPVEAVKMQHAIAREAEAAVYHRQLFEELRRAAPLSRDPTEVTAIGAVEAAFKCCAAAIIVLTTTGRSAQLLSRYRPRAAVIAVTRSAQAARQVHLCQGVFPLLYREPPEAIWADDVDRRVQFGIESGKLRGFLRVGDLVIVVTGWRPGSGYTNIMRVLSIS
A further assay has as its target PKR(G332S) (Homo sapiens, UniProt P30613, G332S). In words: Luminescence Biochemical Assay (Kinase Glo Plus), PKR G332S mutant. As to conditions: with FBP; for activation at 1.54 µM: 1.54 μM compound, read-out: AC50 LUM KGP FBP % Fold@1.54 μM mean; for Emax: read-out: AC50 LUM KGP FBP MAX % FOLD mean. As to the method:
In some embodiments, a PKR Activating Compound can have: (1) an AC50 value of less than 0.1 μM (e.g., compounds with AC50 values of “+++” in Table 13), 0.1-1.0 μM (e.g., compounds with AC50 values of “++” in Table 13), or 1.01-40 μM (e.g., compounds with AC50 values of “+” in Table 13); (2) a MAX % Fold of 75%-250%, 250-500%, or 75%-500%; and/or (3) a % Fold@1.54 μM of 75%-250%, 250-500%, or 75%-500%. In some embodiments, a PKR Activating Compound has (1) an AC50 value of less than 1.0 μM; (2) a MAX % Fold of 75%-500%; and/or (3) a % Fold@1.54 μM of 75%-500%.
The phosphorylation of Adenosine-5′-diphosphate (ADP) by various mutants of PKR was determined by the Kinase Glo Plus Assay (Promega) in the presence or absence of FBP [D-Fructose-1,6-diphosphate; BOC Sciences, CAS: 81028-91-3] as follows. Unless otherwise indicated, all reagents were purchased from Sigma-Aldrich. All reagents were prepared in buffer containing 50 mM Tris-HCl, 100 mM KCl, 5 mM MgCl2, and 0.01% Triton X100, 0.03% BSA, and 1 mM DTT. Enzyme and PEP [Phospho(enol) pyruvic acid] were added at 2× to all wells of an assay-ready plate containing serial dilutions of test compounds or DMSO vehicle. Final enzyme concentrations for PKR(wt), PKR(R510Q), and PKR(G332S) were 0.8 nM, 0.8 nM, and 10 nM respectively. Final PEP concentration was 100 μM. The Enzyme/PEP mixture was incubated with compounds for 30 minutes at RT before the assay was initiated with the addition of 2×ADP [Adenosine-5′-diphosphate] and KinaseGloPlus. Final concentration of ADP was 100 μM. […] For assays containing FBP, that reagent is added at 30 μM upon reaction initiation. Reactions were allowed to progress for 45 minutes at RT until luminescence was recorded by the BMG PHERAstar FS Multilabel Reader. All compounds were tested in triplicate at concentrations ranging from 42.5 μM to 2.2 nM in 0.83% DMSO.
Luminescence values were converted to % Fold increase by normalizing to the average of the DMSO control and multiplying by 100. Max, min, slope and AC50 were determined by the standard four parameter fit algorithm of ActivityBase XE Runner. Compounds were evaluated with three parameters—AC50, MAX % Fold, and % Fold@1.54 μM (FIG. 1). The AC50 value for a compound is the concentration (μM) corresponding to the midway between the maximum and minimum values of the four parameter logistic curve fit (i.e., at which the % fold increase along the four parameter logistic curve fit is halfway between MAX % Fold and MIN % Fold (% Fold Midpoint)), MAX % Fold is the highest fold increase observed at any concentration of compound, and % Fold@1.54 μM is the fold increase at a compound concentration of 1.54 μM. The parameter % Fold@1.54 μM was selected to capture elements of both the AC50 and MAX % Fold and to provide a ranking based on both potency and effect. The compound concentration of 1.54 μM was chosen as one that can optimally differentiate the set of compounds based on the range of activities observed.
As set forth in Table 13 below, AC50 values (columns A, D, G) are defined as follows: ≤0.1 μM (+++); >0.1 μM and ≤1.0 μM (++); >1.0 μM and ≤40 μM (+); >40 μM (0). Max % FOLD values (columns B, E, H) are defined as follows: ≤75% (+); >75% and ≤250% (++); >250% and ≤500% (+++). % Fold@1.54 μM values (columns C, F, J) are defined as follows: ≤75% (+); >75% and ≤250% (++); >250% and ≤50000 (+++).

[1] abbreviates: read-out: AC50 LUM KGP woFBP AC50 μM gmean.
The mark [2] stands for this setting: read-out: AC50 LUM KGP FBP AC50 μM gmean (column A).

Sequence of PKR(G332S) (P30613 whole entry G332S): as the sequence (P30613 whole entry R510Q) above, with G332S, Q510R counted along it
Sequence of PKR(wt) (P30613 whole entry): as the sequence (P30613 whole entry R510Q) above, with Q510R counted along it

With `O=C(N1CC2=C(C1)CN(S(=O)(=O)c1ccc(OC(F)F)cc1)C2)C(F)(F)c1ccccc1` [Example 18-25, 1-(5-((4-(Difluoromethoxy)phenyl)sulfonyl)-3,4,5,6-tetrahydropyrrolo[3,4-c]pyrrol-2(1H)-yl)-2,2-difluoro-2-phenylethan-1-one], the activation at 1.54 µM fell in the range of 250 to 50000% at PKR(wt), 250 to 50000% at PKR(R510Q) and 75 to 250% at PKR(G332S). Moreover, the AC50 at PKR(wt) (setting [1]), at PKR(R510Q) (setting [1]) and on PKR(G332S) (setting [2]) was not above 0.1 µM in each case. Further, the figures for the Emax on PKR(wt), on PKR(R510Q) and on PKR(G332S) were 250 to 500%, 250 to 500% and 75 to 250%, respectively.
For the compound `O=C([C@H](O)c1ccccc1)N1CC2=C(C1)CN(S(=O)(=O)c1ccccn1)C2` [Example 9-2, (2R)-2-hydroxy-2-phenyl-1-[5-(pyridine-2-sulfonyl)-1H,2H,3H,4H,5H,6H-pyrrolo[3,4-c]pyrrol-2-yl]ethan-1-one], the activation at 1.54 µM on PKR(wt), at PKR(R510Q) and on PKR(G332S) was 75 to 250% each time. Besides, the values for the Emax on PKR(wt), at PKR(R510Q) and at PKR(G332S) were 75 to 250%, 250 to 500% and 75 to 250%, respectively. For the same compound, the AC50 at PKR(R510Q) (setting [1]) and at PKR(G332S) (setting [2]) was 0.1 to 1 µM in each case.
Consider `O=C(NCc1ccc(F)cc1)N1CC2=C(C1)CN(S(=O)(=O)c1cccc3cnccc13)C2` [Example 20-41, N-[(4-fluorophenyl)methyl]-5-(isoquinoline-5-sulfonyl)-1H,2H,3H,4H,5H,6H-pyrrolo[3,4-c]pyrrole-2-carboxamide], for which the activation at 1.54 µM at PKR(R510Q) and at PKR(G332S) was 75 to 250% in each case. Besides, the AC50 on PKR(R510Q) (setting [1]) and at PKR(G332S) (setting [2]) was 1 to 40 µM each time. Moreover, the Emax at PKR(R510Q) and on PKR(G332S) was 75 to 250% throughout.
Turning to `COc1cccc(CNC(=O)N2CC3=C(C2)CN(S(=O)(=O)c2cccc(F)c2)C3)c1` [Example 20-8, 5-(3-Fluorobenzenesulfonyl)-N-[(3-methoxyphenyl)methyl]-1H,2H,3H,4H,5H,6H-pyrrolo[3,4-c]pyrrole-2-carboxamide], the activation at 1.54 µM on PKR(R510Q) and at PKR(G332S) was 75 to 250% throughout. Besides, the AC50 lay within 0.1 to 1 µM at PKR(R510Q) (setting [1]) and 1 to 40 µM at PKR(G332S) (setting [2]). The Emax on PKR(R510Q) and at PKR(G332S) was 75 to 250% in each case.
Turning to `O=C(NCc1ccc(F)cc1)N1CC2=C(C1)CN(S(=O)(=O)c1ccc3occc3c1)C2` [Example 20-23, 5-(1-Benzofuran-5-sulfonyl)-N-[(4-fluorophenyl)methyl]-1H,2H,3H,4H,5H,6H-pyrrolo[3,4-c]pyrrole-2-carboxamide], the activation at 1.54 µM on PKR(R510Q) and at PKR(G332S) was 75 to 250% each time. Moreover, the AC50 is 0.1 to 1 µM on PKR(R510Q) (setting [1]) and 1 to 40 µM on PKR(G332S) (setting [2]). In addition, the results for the Emax at PKR(R510Q) and at PKR(G332S) were 250 to 500% and 75 to 250%, respectively.
Consider `COc1ccc(CNC(=O)N2CC3=C(C2)CN(S(=O)(=O)c2cccc4cnccc24)C3)cc1` [Example 20-11, 5-(Isoquinoline-5-sulfonyl)-N-[(4-methoxyphenyl)methyl]-1H,2H,3H,4H,5H,6H-pyrrolo[3,4-c]pyrrole-2-carboxamide], for which the activation at 1.54 µM at PKR(R510Q) and at PKR(G332S) was 75 to 250% each time. For the same compound, the AC50 on PKR(R510Q) (setting [1]) is not above 0.1 µM; at PKR(G332S) (setting [2]), 1 to 40 µM. Further, the Emax on PKR(R510Q) and on PKR(G332S) was 75 to 250% throughout.
Consider `COc1cccc(CNC(=O)N2CC3=C(C2)CN(S(=O)(=O)c2ccc4nsnc4c2)C3)c1` [Example 20-25, 5-(2,1,3-Benzothiadiazole-5-sulfonyl)-N-[(3-methoxyphenyl)methyl]-1H,2H,3H,4H,5H,6H-pyrrolo-[3,4-c]pyrrole-2-carboxamide], for which the activation at 1.54 µM at PKR(R510Q) and at PKR(G332S) was 75 to 250% throughout. Moreover, the AC50 lay within 1 to 40 µM at PKR(R510Q) (setting [1]) and 0.1 to 1 µM on PKR(G332S) (setting [2]). The Emax on PKR(R510Q) and at PKR(G332S) was 75 to 250% each time.
On to `COc1cccc(CNC(=O)N2CC3=C(C2)CN(S(=O)(=O)c2ccc(F)cc2)C3)c1` [Example 20-4, 5-(4-Fluorobenzenesulfonyl)-N-[(3-methoxyphenyl)methyl]-1H,2H,3H,4H,5H,6H-pyrrolo[3,4-c]pyrrole-2-carboxamide], for which the activation at 1.54 µM on PKR(R510Q) and on PKR(G332S) was 75 to 250% each time. In addition, the AC50 at PKR(R510Q) (setting [1]) and at PKR(G332S) (setting [2]) was 0.1 to 1 µM throughout. For the same compound, the Emax on PKR(R510Q) and at PKR(G332S) was 75 to 250% throughout.
`COc1cccc(CNC(=O)N2CC3=C(C2)CN(S(=O)(=O)c2cccc4cnccc24)C3)c1` [Example 20-12, 5-(Isoquinoline-5-sulfonyl)-N-[(3-methoxyphenyl)methyl]-1H,2H,3H,4H,5H,6H-pyrrolo[3,4-c]pyrrole-2-carboxamide]: the activation at 1.54 µM at PKR(R510Q) and at PKR(G332S) was 75 to 250% in each case. The AC50 on PKR(R510Q) (setting [1]) and at PKR(G332S) (setting [2]) was 1 to 40 µM throughout. Besides, the Emax on PKR(R510Q) and at PKR(G332S) was 75 to 250% throughout.
With `O=C(NCc1cnco1)N1CC2=C(C1)CN(S(=O)(=O)c1ccc(F)cc1)C2` [Example 5-1, 5-(4-Fluorophenylsulfonyl)-N-(oxazol-5-ylmethyl)-3,4,5,6-tetrahydropyrrolo[3,4-c]pyrrole-2(1H)-carboxamide], the activation at 1.54 µM on PKR(R510Q) and on PKR(G332S) was 75 to 250% throughout. In addition, the AC50 at PKR(R510Q) (setting [1]) was 1 to 40 µM; at PKR(G332S) (setting [2]), 0.1 to 1 µM. Besides, the Emax on PKR(R510Q) and at PKR(G332S) was 75 to 250% each time.
As for `C[C@@H](C(=O)N1CC2=C(C1)CN(S(=O)(=O)c1c[nH]c3c(Cl)nccc13)C2)c1ccccc1` [Example 25], the AC50 on PKR(R510Q) (gmean, read-out: D - AC50 LUM KGP woFBP AC50 μM gmean) was in the range of 1 to 40 µM; at PKR(G332S) (gmean, read-out: A - AC50 LUM KGP FBP AC50 μM gmean), 1 to 40 µM.
For `Cc1cc(CNC(=O)N2CC3=C(C2)CN(S(=O)(=O)c2ccc4ncsc4c2)C3)no1` [Example 21-8, 5-(1,3-Benzothiazole-6-sulfonyl)-N-[(5-methyl-1,2-oxazol-3-yl)methyl]-1H,2H,3H,4H,5H,6H-pyrrolo[3,4-c]pyrrole-2-carboxamide], the activation at 1.54 µM was 250 to 50000% at PKR(R510Q) and 75 to 250% on PKR(G332S). Besides, the AC50 on PKR(R510Q) (setting [1]) and at PKR(G332S) (setting [2]) was not above 0.1 µM each time. For the same compound, the values for the Emax on PKR(R510Q) and at PKR(G332S) were 250 to 500% and 75 to 250%, respectively.
In the case of `O=C(NCc1ccc(F)cc1)N1CC2=C(C1)CN(S(=O)(=O)c1cccc3nonc13)C2` [Example 20-24, 5-(2,1,3-Benzoxadiazole-4-sulfonyl)-N-[(4-fluorophenyl)methyl]-1H,2H,3H,4H,5H,6H-pyrrolo[3,4-c]pyrrole-2-carboxamide], the activation at 1.54 µM at PKR(R510Q) and at PKR(G332S) was 75 to 250% throughout. For the same compound, the AC50 at PKR(R510Q) (setting [1]) lay within 0.1 to 1 µM; at PKR(G332S) (setting [2]), 1 to 40 µM. In addition, the Emax at PKR(R510Q) is 250 to 500%; on PKR(G332S), 75 to 250%.

For orientation: AC50 means the concentration giving half of the maximal activity seen.
